Experimental data as given in BindingDB's records for doi:10.7270/Q2PK0DMQ (The Scripps Research Institute Molecular Screening Center, 2010).

Molecular target: Protein-arginine deiminase type-4 (Homo sapiens, UniProt Q9UM07)
Experiment: human PAD4 inhibitor potency, dose response, biochemical, fluorescence readout (AID 492970)

Chain of Protein-arginine deiminase type-4 (Q9UM07 whole entry): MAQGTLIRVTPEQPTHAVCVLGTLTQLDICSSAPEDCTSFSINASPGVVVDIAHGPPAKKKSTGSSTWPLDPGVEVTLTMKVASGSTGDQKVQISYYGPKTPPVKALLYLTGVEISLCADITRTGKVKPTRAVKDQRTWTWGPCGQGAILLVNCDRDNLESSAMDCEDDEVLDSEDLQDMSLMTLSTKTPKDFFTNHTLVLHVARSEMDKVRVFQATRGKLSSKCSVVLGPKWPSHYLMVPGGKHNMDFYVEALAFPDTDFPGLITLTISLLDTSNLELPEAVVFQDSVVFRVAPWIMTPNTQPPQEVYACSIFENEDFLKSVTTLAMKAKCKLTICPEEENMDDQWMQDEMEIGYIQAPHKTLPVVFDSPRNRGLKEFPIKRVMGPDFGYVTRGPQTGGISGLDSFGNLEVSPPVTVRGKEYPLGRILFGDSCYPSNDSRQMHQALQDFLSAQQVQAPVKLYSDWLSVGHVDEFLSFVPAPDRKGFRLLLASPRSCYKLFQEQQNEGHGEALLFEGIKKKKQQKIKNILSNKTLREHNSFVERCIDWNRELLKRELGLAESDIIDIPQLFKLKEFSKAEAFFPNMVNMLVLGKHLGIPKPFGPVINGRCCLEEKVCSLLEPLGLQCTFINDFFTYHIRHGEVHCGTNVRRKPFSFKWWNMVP

- IC50: 100 µM
SMILES: O=C1NCC2=Nc3ccccc3NC(c3ccccc3)C12 (stereo unspecified) [MLS000106925]
